From patent US20220016101A1 (ACADIA Pharmaceuticals Inc., priority 2018, published 2022)

Test system: patients with MDD and an inadequate response to an SSRI or SNRI
Test: Massachusetts General Hospital Sexual Functioning Index (MGH-SFI), Study ACP-103-042
Format: in vivo, human
From the text: “Massachusetts General Hospital Sexual Functioning Index (MGH-SFI)” is described, for instance, in Labbate and Lare, 2001, Psychother Psychosom. 70(4):221-225. This is a patient facing questionnaire that quantifies sexual dysfunction into 5 functional domains (“interest in sex,” “sexual arousal,” “ability to achieve orgasm,” “ability to maintain erection” (males only), and “sexual satisfaction”). Patients rate each item using a 6-point scale ranging from 1 (good function) to 6 (poor function). High scores indicate poor sexual functioning. […] The determination of the subject's status and eligibility for randomization in Stage 2 was made in a double-blind manner. […] Sexual functioning was assessed using the Massachusetts General Hospital Sexual Functioning Index or MGH-SFI (Labbate and Lare, 2001, Psychother Psychosom. 70(4):221-225). This is a patient facing questionnaire that quantifies sexual dysfunction into 5 functional domains (“interest in sex,” “sexual arousal,” “ability to achieve orgasm,” “ability to maintain erection” [malesonly], and “sexual satisfaction”). Patients rate each item using a 6-point scale ranging from 1 (good function) to 6 (poor function). The time frame for this scale is the past month. This scale was administered at baseline and Week 5 in both stages of the study. High scores indicate poor sexual functioning. In ACP-103-042 the mean scores for MGH-SFI at Baseline was calculated over all 5 domains for males and the 4 domains for females. For MGH-SFI (follow-up version) at Study Weeks 5 and 10, the mean was calculated in the same way as MGH-SFI at Baseline. […] Tables 10-27 summarize the detailed data of MGH-SFI individual items of the overall study group (Tables 10-15), the subgroup of age of <=50 (Tables 16-21) and the subgroup of age of >50 (Table 21-26). In Tables 9-26, ANCOVA=analysis of covariance; OC=observed cases; LSM=least squares mean; CI=confidence interval; SD=standard deviation; SE=standard error. Stage 1: Baseline=Study Week 0, Week 5=Study Week 5; Stage 2: Baseline=Study Week 5, Week 5=Study Weeks 10. LSM from the stage-specific ANCOVA analysis with the change from baseline as the outcome, treatment group as a factor, and the corresponding Baseline value as a covariate. 2-sided p-value for treatment difference from the stage-specific ANCOVA analysis. An treatment effect size (Cohen's d) is calculated using the formula: Effect Size=Least Square mean difference between PIM and PBO/SD. The corresponding 95% confidence interval for an effect size is calculated based on the theoretical probability distribution of the effect size. […] Tables 10-15 and 28-38 summarize the detailed data of MGH-SFI individual items of the overall study group (Tables 10-15), the female subgroup (Tables 33-37) and the male subgroup (Table 38-43). An treatment effect size (Cohen's d) is calculated using the formula: Effect Size=Least Square mean difference between PIM and PBO/SD. The corresponding 95% confidence interval for an effect size is calculated based on the theoretical probability distribution of the effect size. In Tables 10-15 and 28-38, ANCOVA=analysis of covariance; OC=observed cases; LSM=least squares mean; CI=confidence interval; SD=standard deviation; SE=standard error. Stage 1: Baseline=Study Week 0, Week 5=Study Week 5; Stage 2: Baseline=Study Week 5, Week 5=Study Weeks 10. LSM from the stage-specific ANCOVA analysis with the change from baseline as the outcome, treatment group as a factor, and the corresponding Baseline value as a covariate. 2-sided p-value for treatment difference from the stage-specific ANCOVA analysis. An treatment effect size (Cohen's d) is calculated using the formula: Effect Size=Least Square mean difference between PIM and PBO/SD. The corresponding 95% confidence interval for an effect size is calculated based on the theoretical probability distribution of the effect size.

[1] = female subgroup, Stage 2, positive = pimavanserin better than placebo
[2] = male subgroup, Stage 1 (Study Week 0 to 5), PIM 34 mg
[3] = male subgroup, Stage 1 (Study Week 5), PIM 34 mg
[4] = male subgroup, Stage 1, PIM 34 mg
[5] = male subgroup, Stage 1, PIM 34 mg vs placebo, change from baseline to Week 5
[6] = male subgroup, Stage 1, PIM 34 mg, Week 5
[7] = male subgroup, Stage 2 (Study Week 5 to 10), PIM 34 mg
[8] = male subgroup, Stage 2 (Study Week 10), PIM 34 mg

## CC(C)COc1ccc(CNC(=O)N(Cc2ccc(F)cc2)C2CCN(C)CC2)cc1 [pimavanserin, N-(4-Fluorophenylmethyl)-N-(1-methylpiperidin-4-yl)-N′-(4-(2-methylpropyloxy)phenylmethyl)carbamide]
[1]
  MGH-SFI 05: Overall Sexual Satisfaction, Effect Size (Cohen's d): 0.227
  MGH-SFI 06: Overall Improvement Since Last Medication Change, Effect Size (Cohen's d): 0.167
[2]
  MGH-SFI 01: Interest in Sex, Change from Baseline to Week 5 Mean (SE): −0.6 (1.04)
  MGH-SFI 01: Interest in Sex, Change from Baseline to Week 5 Median: −1.0
[3]
  MGH-SFI 01: Interest in Sex, Week 5 Mean (SE): 4.1 (0.63)
  MGH-SFI 01: Interest in Sex, Week 5 Median: 5.0
[4]
  MGH-SFI Item 02: Ability to Get Sexually Aroused or Excited, Change from Baseline to Week 5, Mean (SE): −0.7 (0.61)
  MGH-SFI Item 02: Ability to Get Sexually Aroused or Excited, Change from Baseline to Week 5, Median: 0.0
  MGH-SFI Item 03: Ability to Achieve Orgasm, Change from Baseline to Week 5, Mean (SE): −0.4 (0.61)
  MGH-SFI Item 03: Ability to Achieve Orgasm, Change from Baseline to Week 5, Median: 0.0
  MGH-SFI Item 04: (Men) Ability to Get and Maintain an Erection, Change from Baseline to Week 5, Mean (SE): −0.3 (0.78)
  MGH-SFI Item 04: (Men) Ability to Get and Maintain an Erection, Change from Baseline to Week 5, Median: 0.0
  MGH-SFI Item 05: Overall Sexual Satisfaction, Change from Baseline to Week 5, Mean (SE): −0.6 (0.81)
  MGH-SFI Item 05: Overall Sexual Satisfaction, Change from Baseline to Week 5, Median: 0.0
Male subgroup, Stage 1, PIM 34 mg vs placebo, Week 5
  MGH-SFI Item 06: Overall Improvement Since Last Medication Change, Effect Size (Cohen's d): 0.257
[5]
  MGH-SFI Item 02: Ability to Get Sexually Aroused or Excited, Effect Size (Cohen's d): 0.358
  MGH-SFI Item 03: Ability to Achieve Orgasm, Effect Size (Cohen's d): 0.053
  MGH-SFI Item 04: (Men) Ability to Get and Maintain an Erection, Effect Size (Cohen's d): 0.105
  MGH-SFI Item 05: Overall Sexual Satisfaction, Effect Size (Cohen's d): 0.047
[6]
  MGH-SFI Item 02: Ability to Get Sexually Aroused or Excited, Week 5, Mean (SE): 3.7 (0.68)
  MGH-SFI Item 02: Ability to Get Sexually Aroused or Excited, Week 5, Median: 4.0
  MGH-SFI Item 03: Ability to Achieve Orgasm, Week 5, Mean (SE): 4.1 (0.74)
  MGH-SFI Item 03: Ability to Achieve Orgasm, Week 5, Median: 5.0
  MGH-SFI Item 04: (Men) Ability to Get and Maintain an Erection, Week 5, Mean (SE): 3.9 (0.70)
  MGH-SFI Item 04: (Men) Ability to Get and Maintain an Erection, Week 5, Median: 3.0
  MGH-SFI Item 05: Overall Sexual Satisfaction, Week 5, Mean (SE): 4.6 (0.69)
  MGH-SFI Item 05: Overall Sexual Satisfaction, Week 5, Median: 5.0
  MGH-SFI Item 06: Overall Improvement Since Last Medication Change, Week 5, Mean (SE): 3.3 (0.64)
  MGH-SFI Item 06: Overall Improvement Since Last Medication Change, Week 5, Median: 3.0
Male subgroup, Stage 1, positive = pimavanserin better than placebo
  MGH-SFI 01: Interest in Sex, Effect Size (Cohen's d): 0.104
[7]
  MGH-SFI 01: Interest in Sex, Change from Baseline to Week 5 Mean (SE): −0.8 (0.32)
  MGH-SFI 01: Interest in Sex, Change from Baseline to Week 5 Median: −1.0
[8]
  MGH-SFI 01: Interest in Sex, Week 5 Mean (SE): 3.6 (0.47)
  MGH-SFI 01: Interest in Sex, Week 5 Median: 4.0
Male subgroup, Stage 2, PIM 34 mg
  MGH-SFI Item 02: Ability to Get Sexually Aroused or Excited, Change from Baseline to Week 5, Mean (SE): −0.6 (0.29)
